Results as given in the NIST ThermoML archive (doi:10.1021/je9010129).
Numbers after ± are expanded uncertainties.

Assay: refractive index (Na D-line) (dimensionless); mn = molality of the nth substance listed, in mol/kg
Conditions: 101 kPa, Liquid, Standard Abbe refractometry

O=S(=O)([O-])[O-].[Na+].[Na+] [sodium sulfate] + O
refractive index
Conditions | 288.15 K | 298.15 K | 308.15 K | 318.15 K
m1 = 0.1002 | 1.33566 ± 0.00031 | 1.33473 ± 0.00031 | 1.33342 ± 0.00031 | 1.33185 ± 0.00031
m1 = 0.1938 | 1.33757 ± 0.00031 | 1.33653 ± 0.00031 | 1.33518 ± 0.00031 | 1.33378 ± 0.00031
m1 = 0.477 | 1.34311 ± 0.00031 | 1.34187 ± 0.00031 | 1.34052 ± 0.00031 | 1.33896 ± 0.00031
m1 = 0.7055 | 1.34719 ± 0.00031 | 1.34585 ± 0.00031 | 1.34434 ± 0.00031 | 1.34278 ± 0.00031
m1 = 0.8578 | 1.34983 ± 0.00031 | 1.34855 ± 0.00031 | 1.34695 ± 0.00031 | 1.34531 ± 0.00031
m1 = 0.9866 | – | 1.35058 ± 0.00031 | 1.34904 ± 0.00031 | 1.34742 ± 0.00031
m1 = 1.206 | – | 1.35377 ± 0.00031 | 1.3522 ± 0.00031 | 1.35057 ± 0.00031
m1 = 1.59 | – | 1.35915 ± 0.00031 | 1.35746 ± 0.00031 | 1.35598 ± 0.00031
m1 = 1.727 | – | 1.36096 ± 0.00031 | 1.35931 ± 0.00031 | 1.35778 ± 0.00031
m1 = 1.992 | – | – | 1.36271 ± 0.00031 | 1.36102 ± 0.00031
m1 = 2.237 | – | – | 1.36573 ± 0.00031 | 1.36396 ± 0.00031
m1 = 2.532 | – | – | 1.36884 ± 0.00031 | 1.36711 ± 0.00031
m1 = 2.681 | – | – | 1.37046 ± 0.00032 | 1.36857 ± 0.00032
m1 = 2.805 | – | – | 1.37172 ± 0.00032 | 1.36992 ± 0.00032
m1 = 3.053 | – | – | 1.37411 ± 0.00032 | 1.37246 ± 0.00032
m1 = 3.219 | – | – | 1.37569 ± 0.00032 | 1.37386 ± 0.00032
m1 = 3.305 | – | – | 1.37649 ± 0.00032 | 1.3747 ± 0.00032
m1 = 3.423 | – | – | 1.37756 ± 0.00032 | –

N.N.O=S(=O)(O)O [ammonium sulfate] + O
refractive index
Conditions | 288.15 K | 298.15 K | 308.15 K | 318.15 K
m1 = 0.2725 | 1.33934 ± 0.00031 | 1.33813 ± 0.00031 | 1.33696 ± 0.00031 | 1.33544 ± 0.00031
m1 = 0.3995 | 1.34174 ± 0.00031 | 1.3408 ± 0.00031 | 1.33941 ± 0.00031 | 1.33806 ± 0.00031
m1 = 0.4876 | 1.34348 ± 0.00031 | 1.34227 ± 0.00031 | 1.34098 ± 0.00031 | 1.33956 ± 0.00031
m1 = 0.8025 | 1.34905 ± 0.00031 | 1.34798 ± 0.00031 | 1.3467 ± 0.00031 | 1.34521 ± 0.00031
m1 = 1.198 | 1.35554 ± 0.00031 | 1.35434 ± 0.00031 | 1.353 ± 0.00031 | 1.35156 ± 0.00031
m1 = 1.604 | 1.3614 ± 0.00031 | 1.36025 ± 0.00031 | 1.35888 ± 0.00031 | 1.3574 ± 0.00031
m1 = 1.992 | 1.36659 ± 0.00031 | 1.36535 ± 0.00031 | 1.36402 ± 0.00031 | 1.36252 ± 0.00031
m1 = 2.381 | 1.37134 ± 0.00031 | 1.37008 ± 0.00031 | 1.36878 ± 0.00031 | 1.36733 ± 0.00031
m1 = 2.801 | 1.37588 ± 0.00032 | 1.37472 ± 0.00032 | 1.37338 ± 0.00032 | 1.37211 ± 0.00032
m1 = 3.2 | 1.38006 ± 0.00032 | 1.37873 ± 0.00032 | 1.37738 ± 0.00032 | 1.37611 ± 0.00032
m1 = 3.619 | 1.38383 ± 0.00032 | 1.38259 ± 0.00032 | 1.38126 ± 0.00032 | 1.38009 ± 0.00032
m1 = 3.997 | 1.38708 ± 0.00032 | 1.38596 ± 0.00032 | 1.38446 ± 0.00032 | 1.38325 ± 0.00032
m1 = 4.396 | 1.39018 ± 0.00032 | 1.38897 ± 0.00032 | 1.3876 ± 0.00032 | 1.38647 ± 0.00032
m1 = 4.763 | 1.39286 ± 0.00032 | 1.3917 ± 0.00032 | 1.39031 ± 0.00032 | 1.38922 ± 0.00032
m1 = 5.181 | 1.3957 ± 0.00032 | 1.39451 ± 0.00032 | 1.3932 ± 0.00032 | 1.39197 ± 0.00032
m1 = 5.6 | 1.39836 ± 0.00032 | 1.39715 ± 0.00032 | 1.39584 ± 0.00032 | 1.39461 ± 0.00032
m1 = 5.876 | – | – | 1.3975 ± 0.00032 | 1.39618 ± 0.00032
m1 = 6.328 | – | – | – | 1.3983 ± 0.00032

O [water] + O=S(=O)([O-])[O-].[K+].[K+]
m2 = 0
Conditions | refractive index
288.15 K | 1.33339 ± 0.00031
298.15 K | 1.33248 ± 0.00031
308.15 K | 1.33128 ± 0.00031
318.15 K | 1.32979 ± 0.00031

O [water] + N.N.O=S(=O)(O)O
m2 = 0
Conditions | refractive index
288.15 K | 1.33339 ± 0.00031
298.15 K | 1.33248 ± 0.00031
308.15 K | 1.33128 ± 0.00031
318.15 K | 1.32979 ± 0.00031

O=S(=O)([O-])[O-].[K+].[K+] [potassium sulfate] + O
refractive index
Conditions | 288.15 K | 298.15 K | 308.15 K | 318.15 K
m1 = 0.0456 | 1.33447 ± 0.00031 | 1.33359 ± 0.00031 | 1.33228 ± 0.00031 | 1.33072 ± 0.00031
m1 = 0.1387 | 1.33636 ± 0.00031 | 1.33552 ± 0.00031 | 1.33411 ± 0.00031 | 1.33251 ± 0.00031
m1 = 0.2502 | 1.33866 ± 0.00031 | 1.33771 ± 0.00031 | 1.33625 ± 0.00031 | 1.33466 ± 0.00031
m1 = 0.3409 | 1.34035 ± 0.00031 | 1.33945 ± 0.00031 | 1.33786 ± 0.00031 | 1.33626 ± 0.00031
m1 = 0.4174 | 1.34183 ± 0.00031 | 1.34071 ± 0.00031 | 1.33927 ± 0.00031 | 1.33763 ± 0.00031
m1 = 0.503 | 1.3433 ± 0.00031 | 1.34227 ± 0.00031 | 1.34077 ± 0.00031 | 1.33906 ± 0.00031
m1 = 0.5093 | 1.34341 ± 0.00031 | 1.3423 ± 0.00031 | 1.34084 ± 0.00031 | 1.3392 ± 0.00031
m1 = 0.5703 | 1.34451 ± 0.00031 | 1.34337 ± 0.00031 | 1.34186 ± 0.00031 | 1.34022 ± 0.00031
m1 = 0.6509 | – | 1.34476 ± 0.00031 | 1.34324 ± 0.00031 | 1.34151 ± 0.00031
m1 = 0.7435 | – | – | 1.34478 ± 0.00031 | 1.34301 ± 0.00031
m1 = 0.8106 | – | – | – | 1.34404 ± 0.00031
m1 = 0.8605 | – | – | – | 1.34488 ± 0.00031
m1 = 0.9049 | – | – | – | 1.34557 ± 0.00031

O [water] + O=S(=O)([O-])[O-].[Na+].[Na+]
m2 = 0
Conditions | refractive index
288.15 K | 1.33339 ± 0.00031
298.15 K | 1.33248 ± 0.00031
308.15 K | 1.33128 ± 0.00031
318.15 K | 1.32979 ± 0.00031
